What was measured:
[1] = target: T1, A1 (h) (Homo sapiens, UniProt P30542); assay: CEREP binding panel; conditions: antagonist radioligand, read-out: % Inhibition of Control Specific Binding
T1 construct: purchased Millipore KinaseProfiler (kinases); Cerep (receptors and ion channels)

[2] = tested on: α2 (non-selective); assay: CEREP binding panel; conditions: 10 μM, antagonist radioligand
[3] = target: T2, β1 (h) (Homo sapiens, UniProt P08588); assay: CEREP binding panel; conditions: agonist radioligand, read-out: % Inhibition of Control Specific Binding
T2 construct: purchased Millipore KinaseProfiler (kinases); Cerep (receptors and ion channels)

[4] = target: T3, B2 (h) (Homo sapiens, UniProt P30411); assay: CEREP binding panel; conditions: agonist radioligand, read-out: % Inhibition of Control Specific Binding
T3 construct: purchased Millipore KinaseProfiler (kinases); Cerep (receptors and ion channels)

[5] = target: T4, CB1 (h) (Homo sapiens, UniProt P21554); assay: CEREP binding panel; conditions: agonist radioligand, read-out: % Inhibition of Control Specific Binding
T4 construct: purchased Millipore KinaseProfiler (kinases); Cerep (receptors and ion channels)

[6] = target: T5, CCR1 (h) (Homo sapiens, UniProt P32246); assay: CEREP binding panel; conditions: agonist radioligand, read-out: % Inhibition of Control Specific Binding
T5 construct: purchased Millipore KinaseProfiler (kinases); Cerep (receptors and ion channels)

[7] = target: T6, Y1 (h) (Homo sapiens, UniProt P25929); assay: CEREP binding panel; conditions: agonist radioligand, read-out: % Inhibition of Control Specific Binding
T6 construct: purchased Millipore KinaseProfiler (kinases); Cerep (receptors and ion channels)

[8] = target: T7, Y2 (h) (Homo sapiens, UniProt P49146); assay: CEREP binding panel; conditions: agonist radioligand, read-out: % Inhibition of Control Specific Binding
T7 construct: purchased Millipore KinaseProfiler (kinases); Cerep (receptors and ion channels)

[9] = target: T8, NTS1 (NT1) (h) (Homo sapiens, UniProt P30989); assay: CEREP binding panel; conditions: agonist radioligand, read-out: % Inhibition of Control Specific Binding
T8 construct: purchased Millipore KinaseProfiler (kinases); Cerep (receptors and ion channels)
T8 sequence (P30989 whole entry): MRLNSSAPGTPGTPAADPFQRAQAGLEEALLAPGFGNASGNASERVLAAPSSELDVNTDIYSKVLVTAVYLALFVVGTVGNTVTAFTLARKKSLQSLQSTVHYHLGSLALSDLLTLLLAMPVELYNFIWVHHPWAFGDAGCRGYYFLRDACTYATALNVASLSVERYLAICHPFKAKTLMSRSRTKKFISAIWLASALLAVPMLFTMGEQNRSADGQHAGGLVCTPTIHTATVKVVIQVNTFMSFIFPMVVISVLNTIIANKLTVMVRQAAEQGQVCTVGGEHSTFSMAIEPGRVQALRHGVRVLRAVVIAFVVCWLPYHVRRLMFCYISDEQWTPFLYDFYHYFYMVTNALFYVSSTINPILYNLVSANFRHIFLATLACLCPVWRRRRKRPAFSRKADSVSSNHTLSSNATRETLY

[10] = target: T9, 5-HT3 (h) (Homo sapiens, UniProt P46098); assay: CEREP binding panel; conditions: antagonist radioligand, read-out: % Inhibition of Control Specific Binding
T9 construct: purchased Millipore KinaseProfiler (kinases); Cerep (receptors and ion channels)

[11] = target: T10, 5-HT6 (h) (Homo sapiens, UniProt P50406); assay: CEREP binding panel; conditions: agonist radioligand, read-out: % Inhibition of Control Specific Binding
T10 construct: purchased Millipore KinaseProfiler (kinases); Cerep (receptors and ion channels)

[12] = tested on: SKCa channel; assay: CEREP binding panel; conditions: 10 μM, antagonist radioligand
[13] = target: T11, AXL (Homo sapiens, UniProt P30530); assay: Millipore kinase panel; type: biochemical; conditions: read-out: % Control
T11 construct: purchased Millipore KinaseProfiler (kinases); Cerep (receptors and ion channels)
T11 sequence (P30530 26-894): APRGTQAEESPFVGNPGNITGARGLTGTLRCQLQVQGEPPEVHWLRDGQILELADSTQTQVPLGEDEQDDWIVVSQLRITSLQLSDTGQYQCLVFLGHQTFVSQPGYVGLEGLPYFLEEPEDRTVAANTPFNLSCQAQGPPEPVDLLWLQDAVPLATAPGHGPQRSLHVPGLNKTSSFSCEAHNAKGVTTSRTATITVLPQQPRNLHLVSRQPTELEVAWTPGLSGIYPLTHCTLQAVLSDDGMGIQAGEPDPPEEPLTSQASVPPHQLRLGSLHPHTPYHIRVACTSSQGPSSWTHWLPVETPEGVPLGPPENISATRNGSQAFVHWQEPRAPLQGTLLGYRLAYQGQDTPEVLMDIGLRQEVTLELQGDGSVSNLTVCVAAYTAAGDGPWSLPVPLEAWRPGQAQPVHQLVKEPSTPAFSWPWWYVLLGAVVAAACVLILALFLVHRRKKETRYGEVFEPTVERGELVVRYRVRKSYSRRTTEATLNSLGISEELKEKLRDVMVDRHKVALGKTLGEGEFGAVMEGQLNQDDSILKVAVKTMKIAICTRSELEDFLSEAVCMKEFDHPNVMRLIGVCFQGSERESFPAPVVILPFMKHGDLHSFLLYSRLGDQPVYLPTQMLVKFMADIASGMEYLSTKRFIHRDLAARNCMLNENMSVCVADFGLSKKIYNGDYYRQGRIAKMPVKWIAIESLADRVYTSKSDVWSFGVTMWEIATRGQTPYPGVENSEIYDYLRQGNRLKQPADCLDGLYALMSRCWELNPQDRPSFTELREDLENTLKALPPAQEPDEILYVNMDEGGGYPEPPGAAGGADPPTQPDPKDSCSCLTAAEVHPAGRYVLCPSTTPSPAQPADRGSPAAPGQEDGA

[14] = target: T12, BRSK2 (Homo sapiens, UniProt Q8IWQ3); assay: Millipore kinase panel; type: biochemical; conditions: read-out: % Control
T12 construct: purchased Millipore KinaseProfiler (kinases); Cerep (receptors and ion channels)

[15] = target: T13, CDK9/CYCLINT1 (Homo sapiens, UniProt P50750); assay: Millipore kinase panel; type: biochemical; conditions: read-out: % Control
T13 construct: purchased Millipore KinaseProfiler (kinases); Cerep (receptors and ion channels)

[16] = target: T14, CHK1 (Homo sapiens, UniProt O14757); assay: Millipore kinase panel; type: biochemical; conditions: read-out: % Control
T14 construct: purchased Millipore KinaseProfiler (kinases); Cerep (receptors and ion channels)

[17] = target: T15, DAPK2 (Homo sapiens, UniProt Q9UIK4); assay: Millipore kinase panel; type: biochemical; conditions: read-out: % Control
T15 construct: purchased Millipore KinaseProfiler (kinases); Cerep (receptors and ion channels)

[18] = target: T16, EPHA7 (Homo sapiens, UniProt Q15375); assay: Millipore kinase panel; type: biochemical; conditions: read-out: % Control
T16 construct: purchased Millipore KinaseProfiler (kinases); Cerep (receptors and ion channels)

[19] = target: T17, EPHA8 (Homo sapiens, UniProt P29322); assay: Millipore kinase panel; type: biochemical; conditions: read-out: % Control
T17 construct: purchased Millipore KinaseProfiler (kinases); Cerep (receptors and ion channels)

[20] = target: T18, EPHB2 (Homo sapiens, UniProt P29323); assay: Millipore kinase panel; type: biochemical; conditions: read-out: % Control
T18 construct: purchased Millipore KinaseProfiler (kinases); Cerep (receptors and ion channels)

[21] = target: T19, FER (Homo sapiens, UniProt P16591); assay: Millipore kinase panel; type: biochemical; conditions: read-out: % Control
T19 construct: purchased Millipore KinaseProfiler (kinases); Cerep (receptors and ion channels)
T19 sequence (P16591 whole entry): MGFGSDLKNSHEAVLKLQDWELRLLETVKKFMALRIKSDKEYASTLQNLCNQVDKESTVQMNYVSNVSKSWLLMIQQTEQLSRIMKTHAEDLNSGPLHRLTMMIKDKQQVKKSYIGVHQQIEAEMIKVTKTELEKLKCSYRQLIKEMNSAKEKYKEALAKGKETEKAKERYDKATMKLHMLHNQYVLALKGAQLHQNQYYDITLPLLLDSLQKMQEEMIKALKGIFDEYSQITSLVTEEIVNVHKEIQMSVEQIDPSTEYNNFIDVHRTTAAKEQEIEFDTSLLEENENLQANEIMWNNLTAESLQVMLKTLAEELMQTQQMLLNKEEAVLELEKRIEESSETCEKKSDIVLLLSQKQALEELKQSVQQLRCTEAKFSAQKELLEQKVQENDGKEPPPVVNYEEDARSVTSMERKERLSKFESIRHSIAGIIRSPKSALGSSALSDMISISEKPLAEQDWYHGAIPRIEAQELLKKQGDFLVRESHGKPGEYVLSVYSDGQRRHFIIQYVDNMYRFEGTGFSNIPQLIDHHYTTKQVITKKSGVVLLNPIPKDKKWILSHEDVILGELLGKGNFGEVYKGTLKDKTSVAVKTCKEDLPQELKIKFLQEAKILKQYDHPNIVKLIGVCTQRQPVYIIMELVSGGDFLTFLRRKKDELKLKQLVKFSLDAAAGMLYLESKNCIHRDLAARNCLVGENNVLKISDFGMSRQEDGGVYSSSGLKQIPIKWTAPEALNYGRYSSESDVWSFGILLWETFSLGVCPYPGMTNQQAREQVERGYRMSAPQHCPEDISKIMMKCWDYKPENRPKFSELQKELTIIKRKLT

[22] = target: T20, HIPK3 (Homo sapiens, UniProt Q9H422); assay: Millipore kinase panel; type: biochemical; conditions: read-out: % Control
T20 construct: purchased Millipore KinaseProfiler (kinases); Cerep (receptors and ion channels)
T20 sequence (Q9H422 whole entry): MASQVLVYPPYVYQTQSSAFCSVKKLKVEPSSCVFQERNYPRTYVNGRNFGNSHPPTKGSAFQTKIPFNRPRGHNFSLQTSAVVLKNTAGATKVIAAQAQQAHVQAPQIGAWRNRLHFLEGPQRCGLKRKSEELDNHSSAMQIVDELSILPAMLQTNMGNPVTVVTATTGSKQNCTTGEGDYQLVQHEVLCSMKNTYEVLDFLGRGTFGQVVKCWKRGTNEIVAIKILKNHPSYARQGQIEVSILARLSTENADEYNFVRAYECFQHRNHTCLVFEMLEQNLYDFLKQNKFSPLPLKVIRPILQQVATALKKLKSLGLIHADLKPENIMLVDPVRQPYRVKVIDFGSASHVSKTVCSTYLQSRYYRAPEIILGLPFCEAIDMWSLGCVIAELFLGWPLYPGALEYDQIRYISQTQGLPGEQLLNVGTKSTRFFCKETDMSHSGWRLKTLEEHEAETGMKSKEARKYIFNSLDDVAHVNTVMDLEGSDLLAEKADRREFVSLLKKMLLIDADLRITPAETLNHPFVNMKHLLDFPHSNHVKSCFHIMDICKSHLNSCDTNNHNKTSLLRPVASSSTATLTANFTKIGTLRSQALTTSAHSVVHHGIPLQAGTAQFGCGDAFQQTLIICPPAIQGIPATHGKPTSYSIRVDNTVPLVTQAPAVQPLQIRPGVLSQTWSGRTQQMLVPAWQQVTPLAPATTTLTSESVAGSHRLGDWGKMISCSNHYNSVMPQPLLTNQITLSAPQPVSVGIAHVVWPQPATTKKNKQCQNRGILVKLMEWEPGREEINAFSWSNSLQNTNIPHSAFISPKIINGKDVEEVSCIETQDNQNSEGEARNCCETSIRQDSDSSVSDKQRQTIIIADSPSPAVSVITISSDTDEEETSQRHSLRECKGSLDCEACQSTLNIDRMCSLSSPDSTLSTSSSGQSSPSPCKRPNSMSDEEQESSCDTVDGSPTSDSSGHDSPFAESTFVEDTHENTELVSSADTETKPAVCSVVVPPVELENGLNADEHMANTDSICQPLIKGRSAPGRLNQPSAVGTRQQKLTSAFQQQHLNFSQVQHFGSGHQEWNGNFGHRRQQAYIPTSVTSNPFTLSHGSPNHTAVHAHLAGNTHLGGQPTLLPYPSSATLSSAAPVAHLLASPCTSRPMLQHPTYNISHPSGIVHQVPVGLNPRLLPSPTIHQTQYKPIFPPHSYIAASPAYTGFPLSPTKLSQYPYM

[23] = target: T21, IKKBETA (Homo sapiens, UniProt O14920); assay: Millipore kinase panel; type: biochemical; conditions: read-out: % Control
T21 construct: purchased Millipore KinaseProfiler (kinases); Cerep (receptors and ion channels)

[24] = target: T22, JNK2ALPHA2 (Homo sapiens, UniProt P45984); assay: Millipore kinase panel; type: biochemical; conditions: read-out: % Control
T22 construct: purchased Millipore KinaseProfiler (kinases); Cerep (receptors and ion channels)

[25] = target: T23, JNK3 (Homo sapiens, UniProt P53779); assay: Millipore kinase panel; type: biochemical; conditions: read-out: % Control
T23 construct: purchased Millipore KinaseProfiler (kinases); Cerep (receptors and ion channels)

[26] = target: T24, KDR (Homo sapiens, UniProt P35968); assay: Millipore kinase panel; type: biochemical; conditions: read-out: % Control
T24 construct: purchased Millipore KinaseProfiler (kinases); Cerep (receptors and ion channels)

[27] = target: T25, LIMK1 (Homo sapiens, UniProt P53667); assay: Millipore kinase panel; type: biochemical; conditions: read-out: % Control
T25 construct: purchased Millipore KinaseProfiler (kinases); Cerep (receptors and ion channels)

[28] = target: T26, MAPK1 (Homo sapiens, UniProt P27361); assay: Millipore kinase panel; type: biochemical; conditions: read-out: % Control
T26 construct: purchased Millipore KinaseProfiler (kinases); Cerep (receptors and ion channels)

[29] = target: T27, MRCKALPHA (Homo sapiens, UniProt Q5VT25); assay: Millipore kinase panel; type: biochemical; conditions: read-out: % Control
T27 construct: purchased Millipore KinaseProfiler (kinases); Cerep (receptors and ion channels)

[30] = target: T28, NEK3 (Homo sapiens, UniProt P51956); assay: Millipore kinase panel; type: biochemical; conditions: read-out: % Control
T28 construct: purchased Millipore KinaseProfiler (kinases); Cerep (receptors and ion channels)
T28 sequence (P51956 whole entry): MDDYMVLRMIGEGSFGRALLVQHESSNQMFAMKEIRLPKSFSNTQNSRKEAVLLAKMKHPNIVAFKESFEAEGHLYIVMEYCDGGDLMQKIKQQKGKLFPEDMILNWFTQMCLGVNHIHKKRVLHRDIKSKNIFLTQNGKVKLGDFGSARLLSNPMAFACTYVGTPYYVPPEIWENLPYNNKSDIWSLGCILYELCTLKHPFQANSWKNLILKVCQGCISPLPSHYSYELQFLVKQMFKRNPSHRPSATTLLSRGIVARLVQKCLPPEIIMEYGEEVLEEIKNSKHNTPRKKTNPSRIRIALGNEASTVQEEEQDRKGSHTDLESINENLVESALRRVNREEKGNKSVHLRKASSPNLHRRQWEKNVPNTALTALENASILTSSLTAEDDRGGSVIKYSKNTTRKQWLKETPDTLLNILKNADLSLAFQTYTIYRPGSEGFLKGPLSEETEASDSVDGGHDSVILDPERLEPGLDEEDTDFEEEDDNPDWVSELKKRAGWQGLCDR

[31] = target: T29, PDK1 (Homo sapiens, UniProt O15530); assay: Millipore kinase panel; type: biochemical; conditions: read-out: % Control
T29 construct: purchased Millipore KinaseProfiler (kinases); Cerep (receptors and ion channels)

[32] = target: T30, PRK2 (Homo sapiens, UniProt Q16513); assay: Millipore kinase panel; type: biochemical; conditions: read-out: % Control
T30 construct: purchased Millipore KinaseProfiler (kinases); Cerep (receptors and ion channels)

[33] = target: T31, PTK5 (Homo sapiens, UniProt P42685); assay: Millipore kinase panel; type: biochemical; conditions: read-out: % Control
T31 construct: purchased Millipore KinaseProfiler (kinases); Cerep (receptors and ion channels)

[34] = target: T32, RSE (Homo sapiens, UniProt Q06418); assay: Millipore kinase panel; type: biochemical; conditions: read-out: % Control
T32 construct: purchased Millipore KinaseProfiler (kinases); Cerep (receptors and ion channels)

[35] = target: T33, SAPK4 (Homo sapiens, UniProt O15264); assay: Millipore kinase panel; type: biochemical; conditions: read-out: % Control
T33 construct: purchased Millipore KinaseProfiler (kinases); Cerep (receptors and ion channels)

[36] = target: T34, TSSK1 (Homo sapiens, UniProt Q9BXA7); assay: Millipore kinase panel; type: biochemical; conditions: read-out: % Control
T34 construct: purchased Millipore KinaseProfiler (kinases); Cerep (receptors and ion channels)
T34 sequence (Q9BXA7 whole entry): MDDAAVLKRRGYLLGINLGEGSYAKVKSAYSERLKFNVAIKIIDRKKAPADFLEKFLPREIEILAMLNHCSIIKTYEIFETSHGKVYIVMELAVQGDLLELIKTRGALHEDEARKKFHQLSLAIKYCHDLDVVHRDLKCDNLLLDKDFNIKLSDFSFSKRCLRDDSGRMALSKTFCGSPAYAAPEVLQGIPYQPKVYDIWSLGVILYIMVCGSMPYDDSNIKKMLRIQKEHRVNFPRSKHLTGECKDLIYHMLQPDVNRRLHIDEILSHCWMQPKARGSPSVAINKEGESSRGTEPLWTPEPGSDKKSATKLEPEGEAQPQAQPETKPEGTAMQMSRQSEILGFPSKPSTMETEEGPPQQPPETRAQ

[37] = target: T35, WNK2 (Homo sapiens, UniProt Q9Y3S1); assay: Millipore kinase panel; type: biochemical; conditions: read-out: % Control
T35 construct: purchased Millipore KinaseProfiler (kinases); Cerep (receptors and ion channels)

[38] = target: T36, ZIPK (Homo sapiens, UniProt O43293); assay: Millipore kinase panel; type: biochemical; conditions: read-out: % Control
T36 construct: purchased Millipore KinaseProfiler (kinases); Cerep (receptors and ion channels)

[39] = target: T37, RSK4 (Homo sapiens, UniProt Q9UK32); assay: Millipore kinase panel; type: biochemical; conditions: read-out: % Control
T37 construct: purchased Millipore KinaseProfiler (kinases); Cerep (receptors and ion channels)
T37 sequence (Q9UK32 whole entry): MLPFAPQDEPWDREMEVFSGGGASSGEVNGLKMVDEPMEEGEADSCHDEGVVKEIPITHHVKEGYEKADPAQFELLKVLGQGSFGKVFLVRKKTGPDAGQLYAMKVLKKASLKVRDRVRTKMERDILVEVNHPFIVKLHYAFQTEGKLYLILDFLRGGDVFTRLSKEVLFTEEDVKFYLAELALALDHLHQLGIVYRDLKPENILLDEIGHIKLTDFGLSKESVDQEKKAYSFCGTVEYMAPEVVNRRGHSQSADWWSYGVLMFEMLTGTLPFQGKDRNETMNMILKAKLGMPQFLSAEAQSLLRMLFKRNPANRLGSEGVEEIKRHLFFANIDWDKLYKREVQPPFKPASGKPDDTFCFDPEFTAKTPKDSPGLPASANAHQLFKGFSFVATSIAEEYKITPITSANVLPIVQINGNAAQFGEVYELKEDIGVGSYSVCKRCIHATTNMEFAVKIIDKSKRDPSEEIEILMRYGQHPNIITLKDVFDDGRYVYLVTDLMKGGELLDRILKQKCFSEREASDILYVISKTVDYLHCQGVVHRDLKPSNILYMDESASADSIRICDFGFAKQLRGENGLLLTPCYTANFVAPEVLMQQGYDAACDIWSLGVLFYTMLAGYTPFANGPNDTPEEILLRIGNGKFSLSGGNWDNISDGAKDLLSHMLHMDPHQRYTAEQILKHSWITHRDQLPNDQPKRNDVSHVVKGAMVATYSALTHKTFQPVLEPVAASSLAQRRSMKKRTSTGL

[40] = target: T38, GCK (Homo sapiens, UniProt Q12851); assay: Millipore kinase panel; type: biochemical; conditions: read-out: % Control
T38 construct: purchased Millipore KinaseProfiler (kinases); Cerep (receptors and ion channels)

[41] = target: T39, PIM-3 (Homo sapiens, UniProt Q86V86); assay: Millipore kinase panel; type: biochemical; conditions: read-out: % Control
T39 construct: purchased Millipore KinaseProfiler (kinases); Cerep (receptors and ion channels)

[42] = target: T40, TAO3 (Homo sapiens, UniProt Q9H2K8); assay: Millipore kinase panel; type: biochemical; conditions: read-out: % Control
T40 construct: purchased Millipore KinaseProfiler (kinases); Cerep (receptors and ion channels)

[43] = target: T41, ULK2 (Homo sapiens, UniProt Q8IYT8); assay: Millipore kinase panel; type: biochemical; conditions: read-out: % Control
T41 construct: purchased Millipore KinaseProfiler (kinases); Cerep (receptors and ion channels)

[44] = target: T42, PLK1 (Homo sapiens, UniProt P53350); assay: Millipore kinase panel; type: biochemical; conditions: read-out: % Control
T42 construct: purchased Millipore KinaseProfiler (kinases); Cerep (receptors and ion channels)

In the case of `O=C1NCCC12CCN(c1c(Cl)cncc1-c1ccc(N3CCOCC3)cc1)CC2` [Compound 44, 8-(3-Chloro-5-(4-morpholin-4-ylphenyl)pyridin-4-yl)-2,8-diazaspiro[4.5]decan-1-one], the inhibition at 10 µM [1] is reported as -11%, the “% Inhibition of Control Specific Binding” value [2] is reported as -1% and the inhibition at 10 µM [3] is reported as 9%. For the same compound, the inhibition at 10 µM [4] was 5%, the inhibition at 10 µM [5] was 1% and the inhibition at 10 µM [6] was 0%. The inhibition at 10 µM [7] was -10%, the inhibition at 10 µM [8] was -8% and the inhibition at 10 µM [9] was -4%. For the same compound, the inhibition at 10 µM [10] was -3%, the inhibition at 10 µM [11] was -5% and the “% Inhibition of Control Specific Binding” value [12] was -6%. For the same compound, the remaining activity at 1 µM [13] was -12%, the remaining activity at 1 µM [14] was 14% and the remaining activity at 1 µM [15] was -24%. For the same compound, the remaining activity at 1 µM [16] was -7%, the remaining activity at 1 µM [17] was 5% and the remaining activity at 1 µM [18] was -2%. For the same compound, the remaining activity at 1 µM [19] was -3%, the remaining activity at 1 µM [20] was -1% and the remaining activity at 1 µM [21] was 11%. It also gave a remaining activity at 1 µM [22] of 7%, a remaining activity at 1 µM [23] of 3% and a remaining activity at 1 µM [24] of 9%. For the same compound, the remaining activity at 1 µM [25] was 11%, the remaining activity at 1 µM [26] was 21% and the remaining activity at 1 µM [27] was -3%. The remaining activity at 1 µM [28] was 10%, the remaining activity at 1 µM [29] was 11% and the remaining activity at 1 µM [30] was 18%. It also gave a remaining activity at 1 µM [31] of 3%, a remaining activity at 1 µM [32] of 17% and a remaining activity at 1 µM [33] of 0%. The remaining activity at 1 µM [34] was 7%, the remaining activity at 1 µM [35] was -2% and the remaining activity at 1 µM [36] was 11%. The remaining activity at 1 µM [37] was -4%, the remaining activity at 1 µM [38] was -10% and the remaining activity at 1 µM [39] was 2%. For the same compound, the remaining activity at 1 µM [40] was -9%, the remaining activity at 1 µM [41] was 5% and the remaining activity at 1 µM [42] was -22%. The remaining activity at 1 µM [43] was 10% and the remaining activity at 1 µM [44] was 14%.

Reference: PMC4767141, “Discovery of Potent, Orally Bioavailable, Small-Molecule Inhibitors of WNT Signaling from a Cell-Based Pathway Screen” (Journal of Medicinal Chemistry, 2015)
